Results as given in US20250339396A1 (COSMAS THERAPEUTICS DEVELOPMENT INC., priority 2021, published 2025).
Like-named read-outs stand apart in the source and are kept apart here.

Legend:
[1] = cited from earlier work
neuropathic (SNI) rats = test: Mechanical allodynia (von Frey, 50% paw withdrawal threshold) after spared nerve injury (SNI); assay type: in vivo, rat; details: for withdrawal threshold over time vs. vehicle (two-way ANOVA, FIG. 1A): 0.5-8 h; for withdrawal threshold vs. vehicle, Bonferroni post-hoc p: after 1 hour; for AUC of withdrawal threshold vs. vehicle (FIG. 3B): p<0.01; for Area Under the Curve (AUC) of withdrawal threshold vs. vehicle, Bonferroni p (FIG. 2B) / withdrawal threshold over time vs. vehicle (two-way ANOVA, FIG. 2A): dose not given for prodrugs E, F; for withdrawal threshold over time vs. vehicle (two-way ANOVA, FIG. 2A): per os
Protocol: Experiments were performed in male Sprague-Dawley rats (body weight: 250-300 g; Charles River Laboratories, St. Constant, QC, Canada) and adult male C57BL mice (body weight: 25-30 g; inbred). All animals were housed in small groups at a constant temperature of 22° C., with food and water provided ad libitum, and maintained under a 12 h light/dark cycle (lights on at 7:00 AM; lights off at 7:00 PM). All experimental procedures were conducted in accordance with the guidelines of the Canadian Council on Animal Care, and the protocols were approved by the Animal Care Committee at McGill University.
The different prodrug compounds as synthesized in Example 2 were tested and compared with Gabapentin (150 mg/kg, purchased from Sigma Aldrich, US). Prodrug was dissolved in saline, water, or a vehicle composed of 40% PEG400 and 60% water. Gabapentin was dissolved in a vehicle composed of 40% PEG400 and 60% water. All drugs (doses see the procedure descriptions below) were administrated per os (gavage) through a curved feeding tube (20 G for rats and 22 G for mice) at the beginning of the experiment unless otherwise specified. The dose of prodrug was chosen based on its pharmacokinetic properties, and the doses of Gabapentin were chosen from literature (Lopez-Canul, Palazzo et al. 2015).
Spared nerve injury was performed according to the method of (Decosterd I and Woolf CJ, 2000), see also Lopez-Canul et al., 2015. Rats and mice were anesthetized with isoflurane. The sciatic nerve was exposed at mid-thigh level distal to the trifurcation and freed of connective tissue; the three peripheral branches (sural, common peroneal, and tibial nerves) of the sciatic nerve were exposed without stretching nerve structures. Both tibial and common peroneal nerves were ligated and transected together. Tactile allodynia was absent in healthy (pre-surgery) and sham rats, and the mechanical withdrawal threshold in rats before SNI (pre-surgery) or sham was very close to the cutoff of dynamic plantar aesthesiometer (30 g) (Ugo Basile, Varese, Italy).
On day 14 after surgery, individual rats were placed in a test chamber (clear plastic wire mesh-bottomed cage) and allowed to acclimatize for 30 to 40 minutes. Von Frey filaments (Stoelting, Wood Dale, IL) were used to measure the 50% paw withdrawal threshold using the up-and-down method reported by {Chaplan, 1994 #399}. […] Lifting of the paw indicated a positive response and prompted the use of the […], whereas absence of paw withdrawal after 5 seconds indicated a negative response and prompted the next filament of increasing weight. This paradigm continued for 4 more measurements after the initial change of the behavioral response or until 5 consecutive negative or 4 consecutive positive responses. Based on observations on normal, unoperated, and sham-operated rats, the cutoff value of 15 g was selected as the upper limit for testing because stiffer hairs tended to raise the entire limb rather than to buckle, substantially changing the nature of the stimulus. The resulting scores were used to calculate the 50% response threshold using the formula proposed by Dixon. Allodynia was considered to be present when paw withdrawal thresholds were <4 g, and drugs raising this threshold were considered antiallodynic {Lopez-Canul, 2015}. Accordingly, all nerve ligated rats were verified to be allodynic, responding to a stimulus of <4 g. Rats without mechanical allodynia were excluded. After the determination of the basal response, allodynia was assessed at baseline, 0.5, 1, 1.5, 2, 2.5, 3, 4, 5, 6, 7, and 8 hours post-administration for each treatment described below. Groups of 5 to 6 rats per treatment were used, with each animal being used for 1 treatment only. […]

[2] = dose of 40 mg/kg; cited from earlier work
[3] = in vivo; cited from earlier work
[4] = Oral bioavailability and brain penetrance of UCM765 and UCM924

In the case of `COc1ccc2cccc(CCNC(C)=O)c2c1` [Agomelatine], the bioavailability ([1]; at the therapeutic oral dose) is given as under 5%.

For `COc1ccc2[nH]cc(CCNC(C)=O)c2c1` [MLT, Melatonin], the half-life ([1]; in vivo) is listed as under 30 min.

For `CC(=O)N(CCN(c1ccc(F)cc1)c1cccc(Br)c1)COC(=O)C(C)(C)C` [Prodrug A, (N-(2-((3-bromophenyl)(4-fluorophenyl)amino)ethyl)acetamido) methyl pivalate], the “Area Under the Curve (AUC) of withdrawal threshold vs. vehicle, Bonferroni p (FIG. 1B)” value (neuropathic (SNI) rats; 50 mg/kg per os) was under 0.01, the “withdrawal threshold over time vs. vehicle (two-way ANOVA, FIG. 1A)” value (neuropathic (SNI) rats; 50 mg/kg per os) was “significantly increased the withdrawal threshold” and the “withdrawal threshold vs. vehicle, Bonferroni post-hoc p” value (neuropathic (SNI) rats; 50 mg/kg per os) was under 0.001.

For `CCOC(=O)OCN(CCN(c1ccc(F)cc1)c1cccc(Br)c1)C(C)=O` [Prodrug B, (N-(2-((3-bromophenyl)(4-fluorophenyl)amino)ethyl)acetamido) methyl ethyl carbonate], the “withdrawal threshold over time vs. vehicle (two-way ANOVA, FIG. 1A)” value (neuropathic (SNI) rats; 50 mg/kg per os) was “significantly increased the withdrawal threshold” and the “withdrawal threshold vs. vehicle, Bonferroni post-hoc p” value (neuropathic (SNI) rats; 50 mg/kg per os) was under 0.0001.

With `CC(=O)N(CCN(c1ccc(F)cc1)c1cccc(Br)c1)C(=O)OC(C)OC(=O)CN.Cl` (stereo not shown) [Prodrug C, 1-((acetyl(2-((3-bromophenyl)(4-fluorophenyl)amino)ethyl)carbamoyl)oxy)ethyl 2-aminoacetate hydrochloride] the “withdrawal threshold over time vs. vehicle (two-way ANOVA, FIG. 1A)” value (neuropathic (SNI) rats; 50 mg/kg per os) was “significantly increased the withdrawal threshold”.

For `CC(=O)N(CCN(c1ccc(F)cc1)c1cccc(Br)c1)C(=O)OCOC(=O)CN` [Prodrug D-2, ((acetyl(2-((3-bromophenyl)(4-fluorophenyl)amino)ethyl)carbamoyl)oxy)methyl 2-aminoacetate methane-sulfonate], the “effect on withdrawal threshold in the SNI model (FIG. 3A)” value (neuropathic (SNI) rats; 50 mg/kg) was “not effective”, the “AUC of withdrawal threshold vs. vehicle (FIG. 3B)” value (neuropathic (SNI) rats; 50 mg/kg) was “significant pro-nociceptive effect” and the “effect on withdrawal threshold in the SNI model (FIG. 3A)” value (neuropathic (SNI) rats; 100 mg/kg) was “effective”. For the same molecule, the “AUC of withdrawal threshold vs. vehicle (FIG. 3B)” value (neuropathic (SNI) rats; 100 mg/kg) was “modest, but significant anti-nociceptive effect”.

In the case of `CC(=O)N(CCN(c1ccc(F)cc1)c1cccc(Br)c1)C(=O)OCOC(=O)C1CCCN1.Cl` (stereo not shown) [Prodrug E, ((acetyl(2-((3-bromophenyl)(4-fluorophenyl)amino)ethyl)carbamoyl)oxy)methyl pyrrolidine-2-carboxylate hydrochloride], the “Area Under the Curve (AUC) of withdrawal threshold vs. vehicle, Bonferroni p (FIG. 2B)” value (neuropathic (SNI) rats) is reported as under 0.05, the “withdrawal threshold vs. vehicle, post-hoc p (FIG. 2A)” value (neuropathic (SNI) rats; hour 2, 4 and 5) is reported as under 0.05 and the “withdrawal threshold, treatment vs. vehicle p (FIG. 2A)” value (neuropathic (SNI) rats; overall) is reported as 0.04. For the same molecule, the “withdrawal threshold over time vs. vehicle (two-way ANOVA, FIG. 2A)” value (neuropathic (SNI) rats) was “different from vehicle”.

For `CC(=O)N(CCN(c1ccc(F)cc1)c1cccc(Br)c1)C(=O)OCOC(=O)[C@@H](N)CC(C)C.Cl` [Prodrug F], the “withdrawal threshold vs. vehicle, Bonferroni post-hoc p (FIG. 2A)” value (neuropathic (SNI) rats; after 5, 6 and 7 hours) was under 0.0001, the “withdrawal threshold vs. vehicle, Bonferroni post-hoc p (FIG. 2A)” value (neuropathic (SNI) rats; after 3 hours) was 0.05 and the “Area Under the Curve (AUC) of withdrawal threshold vs. vehicle, Bonferroni p (FIG. 2B)” value (neuropathic (SNI) rats) was under 0.001. The “withdrawal threshold over time vs. vehicle (two-way ANOVA, FIG. 2A)” value (neuropathic (SNI) rats) was “significant difference”.

For `CCC(=O)NCC[C@@H]1CCc2ccc3c(c21)CCO3` [Ramelteon], the absolute oral bioavailability ([1]; extensive first-pass metabolism) is given as 1.8%.

In the case of `COc1cccc(N(CCNC(C)=O)c2ccccc2)c1` [UCM765, N-{2-[(3-methoxyphenyl)-phenylamino]ethyl}acetamide], the “restorative sleep (NREM sleep)” value [2] is given as “facilitated restorative sleep”, the anti-anxiety properties [3] is given as “possesses anti-anxiety properties” and the Kp ([4]; brain) is given as 2.5. It also gave a bioavailability ([4]; in vivo, po) of 2%.
